We go through 3 compounds from patent US10136663B2, “Curcuminoid-based compound/stevioside-containing complex for the prevention and treatment of an influenza virus infection” (priority 2011, dated 2018).

Data set [1] in a line: Curcumin content of curcumin/stevioside complex solution. The format is physicochemical. The note with it: in 100 g/L of the stevioside solution, after ultrasonication at 70° C. and oven reaction.
Data set [2] concerns influenza virus type A (H9N2). More on the design: species or system chicken. Particulars: in vivo, po.
The test system of data set [3] is influenza virus H9N2 (A/Chicken/Korea/MS96/96). The note with it: dog.
The test system is the same in data set [4]. The note with it: dog. The source holds these as a separate data set.

Like-named read-outs stand apart in the source and are kept apart here.

As to `COc1cc(/C=C/C(=O)/C=C(O)/C=C/c2ccc(O)c(OC)c2)ccc1O` [Curcumin, curcumin], the “maximum curcumin in the resulting solution” value in data set [1] came to 3.5 g/L.
Turning to `C=C1C[C@@]23CC[C@H]4[C@@](C)(CCC[C@@]4(C)C(=O)O[C@@H]4O[C@H](CO)[C@@H](O)[C@H](O)[C@H]4O)[C@@H]2CC[C@]1(O[C@@H]1O[C@H](CO)[C@@H](O)[C@H](O)[C@H]1O[C@@H]1O[C@H](CO)[C@@H](O)[C@H](O)[C@H]1O)C3` [G4, stevioside], in data set [2], the “Mean virus titer, Cecal Tonsil” value was 5.30 ± 3.5 log10EID50/g; the “Mean virus titer, Trachea” value turned out to be 5.80 ± 1.3 log10EID50/g; the “Virus re-isolation, Cecal Tonsil (number of virus-positive chicken/number of inoculated chickens)” value is recorded as 8/10; the “Virus re-isolation, Trachea (number of virus-positive chicken/number of inoculated chickens)” value is on record as 10/10.
As to `CCOC(=O)C1=C[C@@H](OC(CC)CC)[C@H](NC(C)=O)[C@@H](N)C1` [Tamiflu, reference compound], the “SI, selective index, CC50/EC50” value in data set [3] and in data set [4] was >200 each time.
